Reference: publication PMC8911927, “Synthesis and Biological Evaluation of 1-(2-(6-Methoxynaphthalen-2-yl)-6-methylnicotinoyl)-4-Substituted Semicarbazides/Thiosemicarbazides as Anti-Tumor Nur77 Modulators” (Molecules, 2022)

What was measured:
HGC-27 cells [1] = experiment: MTT cytotoxicity, HGC-27; type: cell-based, human; settings: 72 h, mean values
Procedure: (§1) All of the cell lines were obtained from the American Type Culture Collection (ATCC, Manassas, VA, USA) and grown in DMEM or RPMI culture medium containing 10% fetal bovine serum (v/v) in 5% CO2 at 37 °C.
(§2) Confluent cells in good state were cultured in 96-well plates (5–10 × 10^4 cells/mL). After cells were attached to the plate, compounds with various concentrations were applied at 37 °C for 72 h. Then, the cells were incubated with 10 μL of 5 mg/mL MTT reagent at 37 °C for 4 h. The supernatant was removed, and the cells were dissolved in 100 μL dimethyl sulfoxide and shaken for 5 min. Finally, the light absorption (OD) of the dissolved cells was measured at […].

HeLa cells = experiment: MTT cytotoxicity, HeLa; type: cell-based, human; settings: 72 h, mean values
Procedure: as §1, §2

MCF-7 cells = experiment: MTT cytotoxicity, MCF-7; type: cell-based, human; settings: mean values
Procedure: as §1, §2

MRC-5 cells = experiment: MTT cytotoxicity, MRC-5 normal cells; type: cell-based
Procedure: (§3) All of the cell lines were obtained from the American Type Culture Collection (ATCC, Manassas, VA, USA) and grown in DMEM or RPMI culture medium containing 10% fetal bovine serum (v/v) in 5% CO2 at 37 °C. Confluent cells in good state were cultured in 96-well plates (5–10 × 10^4 cells/mL). After cells were attached to the plate, compounds with various concentrations were applied at 37 °C for 72 h. […] The supernatant was removed, and the cells were dissolved in 100 μL dimethyl sulfoxide and shaken for 5 min.

LO2 cells = experiment: MTT cytotoxicity, LO2 normal cells; type: cell-based
Procedure: as §3

MDA-MB231 cells = experiment: MTT cytotoxicity, MDA-MB231; type: cell-based; settings: read-out: Cancer Cells IC50, MDA-MB231
Procedure: as §3

HGC-27 cells [2] = experiment: Flow cytometry cell cycle assay; type: cell-based, human; set-up: dose or concentration left out as unconfirmed; settings: 8 h of treatment
Procedure: Flow cytometry analysis was applied for cell cycle detection. Firstly, HGC-27 cell was adjusted to 1 × 10^6/mL, inoculated into a six-well plate and placed in an incubator at 37 °C containing 5% CO2 saturated humidity overnight. After the cells were fully attached to the plate, […] 9u and 9h were administrated to the cells for 8 h. After cells were collected and fixed with 70% ethanol, DAPI was applied to stain the cells at the final concentration of 1 μg/mL; subsequently, on-board testing by flow cytometry (Cytoflex S (Beckman Coulter, Brea, CA, USA)) was conducted.

HGC-27 cells [3] = experiment: Colony formation assay; type: cell-based, human; settings: treatment for two weeks, 5 μM and 10 μM, dose-dependent
Procedure: HGC-27 cells were cultured in a six-well plate (500 cells/well) and treated with 9u and 9h in 10% serum medium for two weeks, then fixed with methanol at room temperature and stained with 0.1% crystal violet, and images were scanned with a scanner.

H460 cells = experiment: MTT cytotoxicity, H460; type: cell-based; settings: read-out: Cancer Cells IC50, H460
Procedure: as §3

HepG2 cells = experiment: MTT cytotoxicity, HepG2; type: cell-based; settings: read-out: Cancer Cells IC50, HepG2
Procedure: as §3

A875 cells = experiment: MTT cytotoxicity, A875; type: cell-based; settings: read-out: Cancer Cells IC50, A875
Procedure: as §3

A549 cells = experiment: MTT cytotoxicity, A549; type: cell-based; settings: read-out: Cancer Cells IC50, A549
Procedure: as §3

cleaved PARP = experiment: Western blot of cleaved PARP; type: cell-based, human; settings: HGC-27 cells, different times and concentrations, 24 h
Procedure: Equal amounts of the lysates were electrophoresed on 10% SDS-PAGE gel and transferred onto PVDF membranes. After blocked with 5% nonfat milk in TBST (50 mM Tris-HCl (pH 7.4), 150 mM NaCl and 0.1% Tween 20) for 1 h, the membranes were incubated with various primary antibodies overnight and secondary antibodies for 3 h, finally detected using an ECL system. The blots were captured with ChemiDoc XRS+System (Bio-Rad, Hercules, CA, USA).

| Compound | IC50 (HGC-27 cells [1]) [µM] | IC50 (HeLa cells) [µM] | IC50 (MCF-7 cells; 72 h) [µM] | further results |
| --- | --- | --- | --- | --- |
| 1-(2-(6-Methoxynaphthalen-2-yl)-6-methylnicotinoyl)-4-(4-methoxyphenyl)semicarbazide [Compound 9g] | 19.4 ± 0.63 | 20.2 ± 0.31 | 18.4 ± 0.21 | – |
| 1-(2-(6-Methoxynaphthalen-2-yl)-6-methylnicotinoyl)-4-(4-methoxyphenyl)thiosemicarbazide [Compound 9t] | 16.7 | 10.1 ± 0.61 | 11.4 | – |
| 1-(2-(6-Methoxynaphthalen-2-yl)-6-methylnicotinoyl)-4-m-tolylthiosemicarbazide [Compound 9r] | 19.4 ± 0.11 | 20.2 ± 0.24 | 18.4 ± 0.41 | – |
| 1-(2-(6-Methoxynaphthalen-2-yl)-6-methylnicotinoyl)-4-o-tolylsemicarbazide [Compound 9d] | 39.1 ± 0.72 | 20.7 ± 0.26 | 35.2 ± 0.6 | – |
| 1-(2-(6-Methoxynaphthalen-2-yl)-6-methylnicotinoyl)-4-o-tolylthiosemicarbazide [Compound 9q] | 19.4 ± 0.69 | 14.2 ± 0.22 | 23.3 ± 0.21 | – |
| 1-(2-(6-Methoxynaphthalen-2-yl)-6-methylnicotinoyl)-4-p-tolylsemicarbazide [Compound 9f] | 29.4 ± 0.31 | 24.2 ± 0.61 | 23.3 ± 0.1 | – |
| 1-(2-(6-Methoxynaphthalen-2-yl)-6-methylnicotinoyl)-4-p-tolylthiosemicarbazide [Compound 9s] | 10.4 ± 0.19 | 16.12 ± 0.07 | 19.3 ± 0.3 | – |
| 1-(2-(6-Methoxynaphthalen-2-yl)-6-methylnicotinoyl)-4-phenethylthiosemicarbazide [Compound 9o] | 39.12 ± 0.21 | 20.7 ± 0.22 | 35.2 ± 0.09 | – |
| 1-(2-(6-Methoxynaphthalen-2-yl)-6-methylnicotinoyl)-4-phenylthiosemicarbazide [Compound 9p] | 19.24 ± 0.09 | 14.7 ± 0.31 | 23.34 ± 0.21 | – |
| 1-(2-(6-methoxynaphthalen-2-yl)-6-methylnicotinoyl)-4-m-tolylsemicarbazide [Compound 9e] | 49.24 ± 0.26 | 24.65 ± 0.24 | 33.34 ± 0.12 | – |
| 4-(2,4-Difluorophenyl)-1-(2-(6-methoxynaphthalen-2-yl)-6-methylnicotinoyl)thiosemicarbazide [Compound 9v] | 12.4 ± 0.25 | 10.1 ± 0.11 | 11.6 ± 0.56 | – |
| 4-(2-Chlorophenyl)-1-(2-(6-methoxynaphthalen-2-yl)-6-methylnicotinoyl)thiosemicarbazide [Compound 9u] | 4.56 ± 0.09 | 6.1 ± 0.5 | 6.44 ± 0.07 | IC50 (MRC-5 cells): 22.1 ± 0.11 µM; IC50 (LO2 cells): 41 ± 0.7 µM; IC50 (MDA-MB231 cells): 21 ± 0.01 µM; Effect on cell cycle (HGC-27 cells [2]): induced cell cycle blockage in G2-M phase; Colony formation of HGC-27 cells (HGC-27 cells [3]): completely inhibited colony formation; IC50 (H460 cells): 14 ± 0.38 µM; IC50 (HepG2 cells): 7.2 ± 0.11 µM; IC50 (A875 cells): 15.7 ± 0.11 µM; IC50 (A549 cells): 11.2 ± 0.46 µM; PARP cleavage (cleaved PARP): induce the PARP cleavage in a dose-dependent and time-dependent manner |
| 4-(3,4-Dichlorophenyl)-1-(2-(6-methoxynaphthalen-2-yl)-6-methylnicotinoyl)semicarbazide [Compound 9k] | 12.4 ± 0.5 | 10.1 ± 0.69 | 11.6 ± 0.45 | – |
| 4-(3,4-Dichlorophenyl)-1-(2-(6-methoxynaphthalen-2-yl)-6-methylnicotinoyl)thiosemicarbazide [Compound 9w] | 16.4 ± 0.31 | 10.7 ± 0.34 | 10.9 ± 0.42 | – |
| 4-(3,5-Difluorophenyl)-1-(2-(6-methoxynaphthalen-2-yl)-6-methylnicotinoyl)semicarbazide [Compound 9j] | 16.6 ± 0.44 | 12.1 ± 0.21 | 16.3 ± 0.34 | – |
| 4-(3,5-Dimethylphenyl)-1-(2-(6-methoxynaphthalen-2-yl)-6-methylnicotinoyl)semicarbazide [Compound 9i] | 19.7 ± 0.31 | 20.1 ± 0.44 | 21.4 ± 0.25 | – |
| 4-Benzyl-1-(2-(6-methoxynaphthalen-2-yl)-6-methylnicotinoyl)semicarbazide [Compound 9c] | 23.16 ± 0.2 | 25.3 ± 0.45 | 21.1 ± 0.52 | – |
| 4-Benzyl-1-(2-(6-methoxynaphthalen-2-yl)-6-methylnicotinoyl)thiosemicarbazide [Compound 9n] | 23.16 ± 0.07 | 25.33 ± 0.1 | 21.1 ± 0.32 | – |
| 4-Cyclohexyl-1-(2-(6-methoxynaphthalen-2-yl)-6-methylnicotinoyl)thiosemicarbazide [Compound 9m] | 30.2 ± 0.61 | 34.5 ± 0.37 | 35.4 ± 0.41 | – |
| 4-Cyclopentyl-1-(2-(6-methoxynaphthalen-2-yl)-6-methylnicotinoyl)semicarbazide [Compound 9a] | 38.39 ± 0.32 | 88.39 ± 0.22 | 60.26 ± 0.11 | – |
| N.N.[Cl][Pt][Cl] [Cisplatin, reference compound] | 8.9 ± 0.2 | 12.45 ± 0.11 | 10.5 ± 0.31 | IC50 (MRC-5 cells): > 50 µM; IC50 (LO2 cells): > 50 µM; IC50 (MDA-MB231 cells): 20.2 ± 0.25 µM; IC50 (H460 cells): 16.6 ± 0.09 µM; IC50 (HepG2 cells): 15.2 ± 0.29 µM; IC50 (A875 cells): 21.2 ± 0.08 µM; IC50 (A549 cells): 9.3 ± 0.11 µM |
| COc1ccc2cc(-c3ccc(C(=O)NNC(=O)NC4CCCCC4)c(C)n3)ccc2c1 [Compound 9b] | – | – | – | IC50 (HGC-27 cells [1]; Homo sapiens): 50.26 ± 0.2 µM; IC50 (HeLa cells; Homo sapiens): 30.5 ± 0.4 µM; melting point: 236 to 237 °C; IC50 (MCF-7 cells; Homo sapiens, MCF7, 72 h): 41.5 ± 0.78 µM |
| CCCCCCNC(=S)NNC(=O)c1ccc(C)nc1-c1ccc2cc(OC)ccc2c1 [Compound 9l, 4-Hexyl-1-(2-(6-methoxynaphthalen-2-yl)-6-methylnicotinoyl)thiosemicarbazide] | – | – | – | IC50 (HGC-27 cells [1]; Homo sapiens): 38.1 ± 0.21 µM; IC50 (HeLa cells; Homo sapiens): 45.4 ± 0.11 µM; melting point: 195 to 196 °C; IC50 (MCF-7 cells; Homo sapiens, MCF7, 72 h): 40.2 ± 0.33 µM |
